Reference: patent US20240199546A1, “INHIBITORS OF SOLUTE CARRIER FAMILY 6A MEMBER 19 (SLC6A19) AND METHODS OF USE THEREOF” (Maze Therapeutics, Inc., priority 2022, published 2024)

biological target: T1, human SLC6A19 and TMEM27 (Homo sapiens, UniProt Q695T7); assay: 13C6,15N-isoleucine uptake in CHO cells with doxycycline-inducible expression of human SLC6A19 and TMEM27, RapidFire mass spectrometry (Example B-2); format: cell-based; details: read-out: SLC6A19_RapidFire Uptake Assay IC50
T1 construct: expressed in transfected cells
T1 sequence (Q695T7 1-634): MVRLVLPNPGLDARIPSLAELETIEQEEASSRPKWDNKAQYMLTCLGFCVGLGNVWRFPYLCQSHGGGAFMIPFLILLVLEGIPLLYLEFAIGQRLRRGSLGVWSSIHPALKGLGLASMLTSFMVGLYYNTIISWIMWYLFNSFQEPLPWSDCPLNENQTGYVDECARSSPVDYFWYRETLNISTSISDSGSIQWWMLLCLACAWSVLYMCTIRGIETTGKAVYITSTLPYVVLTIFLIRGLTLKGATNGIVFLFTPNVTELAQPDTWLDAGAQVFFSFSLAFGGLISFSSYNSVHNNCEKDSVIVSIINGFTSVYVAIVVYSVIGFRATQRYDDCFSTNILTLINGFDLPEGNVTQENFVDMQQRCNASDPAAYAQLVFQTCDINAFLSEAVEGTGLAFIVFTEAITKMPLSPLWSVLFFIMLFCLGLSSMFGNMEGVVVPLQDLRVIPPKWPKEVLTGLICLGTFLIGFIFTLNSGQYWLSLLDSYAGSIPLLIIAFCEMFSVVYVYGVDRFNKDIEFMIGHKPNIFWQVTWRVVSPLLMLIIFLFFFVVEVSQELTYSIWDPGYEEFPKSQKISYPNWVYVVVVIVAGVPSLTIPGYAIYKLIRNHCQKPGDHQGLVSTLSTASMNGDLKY
T1 sequence (Q9HBJ8 15-222 partner): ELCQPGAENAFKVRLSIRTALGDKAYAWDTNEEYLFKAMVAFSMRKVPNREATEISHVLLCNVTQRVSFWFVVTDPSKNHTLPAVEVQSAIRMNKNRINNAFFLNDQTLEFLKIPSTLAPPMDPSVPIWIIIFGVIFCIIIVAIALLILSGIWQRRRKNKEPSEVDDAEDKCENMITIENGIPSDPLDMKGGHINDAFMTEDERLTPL
Procedure: Assay ready vials of CHO cells with doxycycline inducible expression of human SLC6A19 and TMEM27 were thawed, plated in T175 flasks containing DMEM/F12 media, 10% FBS, 1% Penicillin-Streptomycin, 1× UltraGlutamate, 1 mM Sodium Pyruvate, Sodium Bicarbonate (7.5 mL of 7.5% solution in 500 mL media final), 5 μg/mL Blasticidin, 150 μg/mL Hygromycin B Gold, and 500 μg/mL G418, and incubated (humidified, 37° C. with 5% CO2) for 48 hours. Media was then removed, flasks were washed with 20 mL of DPBS, and 5 mL of TrypLE™ Express was added to each flask to initiate cell dissociation. After 5 minutes, 10 mL of cell culture media was added to each flask and mixed. The cell suspension was collected and centrifuged for 5 minutes at 200×g. The supernatant was removed, and the pellet was resuspended in 10 mL of cell culture media. Resuspended cells were counted using a Vi-Cell. 30 μL/well (20,000 cells/well) of cell suspension was added to Poly-D-Lysine 384-well black/clear plates. Plates were incubated (humidified, 37° C. with 5% CO2) for 24 hours. To induce expression of human SLC6A19 and TMEM27, 10 μL of assay culture media containing 4 μg/mL doxycycline was added to each well. Assay plates were then incubated (humidified, 37° C. with 5% CO2) overnight. After incubation, the media was removed, and wells were washed 3 times with 40 μL of warmed DPBS. Next, 10 μL of warmed assay buffer (137 mM NaCl, 5 mM KCl, 1 mM CaCl2), 1 mM MgCl2, 10 mM HEPES, 10 mM glucose, pH 7.2) was added to each well. 10 μL/well of test compound or positive control compound to define 0% activity (i.e., 100% inhibition), was then added into each well. All compounds were plated in a duplicate 10-point dilution series that consisted of 2-fold dilutions. The plates were incubated (humidified, 37° C. with 5% C2) with compound for 20 minutes. Afterwards, 20 μL/well of 2 mM 13C6,15N-1-isoleucine was added to each well and plates were incubated again (humidified, 37° C. with 5% C02) for another 20 minutes. Assay buffer was then removed, and plates were washed. 70 μL/well of stop solution (75% acetonitrile, 25% HPLC grade water, 250 nM 1-leucine-1-13C (RapidFire standard)) was added to each well. The plates were sealed and then placed in a −20° C. freezer for 20 minutes. The plates were thawed at room temperature for 20 minutes and then centrifuge for 20 minutes at 3000 rpm. Using an ABSciex API4000 mass spectrometer, processed samples were loaded onto the graphitic carbon SPE-column. The time for aspiration, load/wash, elution and re-equilibration time was 600, 1500, 3000 and 500 milliseconds, respectively. Peak areas were calculated using RapidFire Integrator software.

| Compound | IC50 [nM] |
| --- | --- |
| CC1(C(=O)NCc2cc3ccc([C@@H]4C[C@H]4c4ccccc4)cc3[nH]2)CC1 (racemic) [Compound 154, trans-1-methyl-N-((6-(2-phenylcyclopropyl)-1H-indol-2-yl)methyl)cyclopropane-1-carboxamide] | 1360 |
| CC1(C(=O)NCc2cc3cc(Cl)c(OCc4cocn4)cc3[nH]2)CC1 [Compound 161, N-((5-chloro-6-(oxazol-4-ylmethoxy)-1H-indol-2-yl)methyl)-1-methylcyclopropane-1-carboxamide] | 68 |
| Cc1cc(Oc2ccc3cc(CNC(=O)C4(C)CC4)[nH]c3c2)no1 [Compound 78, 1-methyl-N-((6-((5-methylisoxazol-3-yl)oxy)-1H-indol-2-yl)methyl)cyclopropanecarboxamide] | 5180 |
| CC1(C(=O)NCc2cc3cc(F)c(OCc4cncs4)cc3[nH]2)CC1 [Compound 9, N-((5-fluoro-6-(thiazol-5-ylmethoxy)-1H-indol-2-yl)methyl)-1-methylcyclopropane-1-carboxamide] | 271 |
| CC1(C(=O)NCc2cc3cc(F)c(OCc4cocn4)cc3[nH]2)CC1 [Compound 7, N-((5-fluoro-6-(oxazol-4-ylmethoxy)-1H-indol-2-yl)methyl)-1-methylcyclopropane-1-carboxamide] | 225 |
| CC1(C(=O)NCc2cc3cc(Cl)c(OCc4cnsn4)cc3[nH]2)CC1 [Compound 183, N-((6-((1,2,5-thiadiazol-3-yl)methoxy)-5-chloro-1H-indol-2-yl)methyl)-1-methylcyclopropane-1-carboxamide] | 39 |
| CNC(=O)NCc1cc2ccc(OCc3cscn3)cc2[nH]1 [Compound 217, 1-methyl-3-((6-(thiazol-4-ylmethoxy)-1H-indol-2-yl)methyl)urea] | 3420 |
| CC1(C(=O)NCc2cc3ccc(OCc4ccncc4)cc3[nH]2)CC1 [Compound 56, 1-methyl-N-((6-(pyridin-4-ylmethoxy)-1H-indol-2-yl)methyl)cyclopropane-1-carboxamide] | 1950 |
| CC1(C(=O)NCc2cc3ccc(OCc4csnn4)cc3[nH]2)CC1 [Compound 170, N-((6-((1,2,3-thiadiazol-4-yl)methoxy)-1H-indol-2-yl)methyl)-1-methylcyclopropane-1-carboxamide] | 187 |
| CC1(C(=O)NCc2cc3ccc(OCc4nncs4)cc3[nH]2)CC1 [Compound 171, N-((6-((1,3,4-thiadiazol-2-yl)methoxy)-1H-indol-2-yl)methyl)-1-methylcyclopropane-1-carboxamide] | 1730 |
| CNC(=O)NCc1cc2ccc(OCc3cocn3)cc2[nH]1 [Compound 108, 1-methyl-3-((6-(oxazol-4-ylmethoxy)-1H-indol-2-yl)methyl)urea] | 5570 |
| CC1(C(=O)NCc2cc3cc(Cl)c(OCc4nccs4)cc3[nH]2)CC1 [Compound 40, N-((5-chloro-6-(thiazol-2-ylmethoxy)-1H-indol-2-yl)methyl)-1-methylcyclopropane-1-carboxamide] | 64 |
| CC1(C(=O)NCc2[nH]c3cc(OCc4ccon4)ccc3c2Cl)CC1 [Compound 157, N-((3-chloro-6-(isoxazol-3-ylmethoxy)-1H-indol-2-yl)methyl)-1-methylcyclopropane-1-carboxamide] | 43 |

Next, values leading:

| IC50 [nM] | Compound |
| --- | --- |
| 53 | CC1(C(=O)NCc2cc3ccc(OCc4ccccc4)cc3[nH]2)CC1 [Compound 5, N-((6-(benzyloxy)-1H-indol-2-yl)methyl)-1-methylcyclopropanecarboxamide] |
| 644 | O=C(NCc1cc2ccc(OCc3cocn3)cc2[nH]1)N1CCCC1 [Compound 105, N-((6-(oxazol-4-ylmethoxy)-1H-indol-2-yl)methyl)pyrrolidine-1-carboxamide] |
| 2180 | Cc1nnc(COc2ccc3cc(CNC(=O)C4(C)CC4)[nH]c3c2)s1 [Compound 165, 1-methyl-N-((6-((5-methyl-1,3,4-thiadiazol-2-yl)methoxy)-1H-indol-2-yl)methyl)cyclopropane-1-carboxamide] |
| 4820 | CC1(C(=O)NCc2cc3ccc(OCc4ccncn4)cc3[nH]2)CC1 [Compound 53, 1-methyl-N-((6-(pyrimidin-4-ylmethoxy)-1H-indol-2-yl)methyl)cyclopropane-1-carboxamide] |
| 1620 | Cc1cccc(COc2cc3[nH]c(CNC(=O)C4(C)CC4)cc3cc2Cl)n1 [Compound 42, N-((5-chloro-6-((6-methylpyridin-2-yl)methoxy)-1H-indol-2-yl)methyl)-1-methylcyclopropane-1-carboxamide] |
| 920 | CC1(C(=O)NCc2cc3ccc(OCc4cnco4)cc3[nH]2)CC1 [Compound 163, 1-methyl-N-((6-(oxazol-5-ylmethoxy)-1H-indol-2-yl)methyl)cyclopropane-1-carboxamide] |
| 1420 | Cc1nc(COc2ccc3cc(CNC(=O)C4(C)CC4)[nH]c3c2)cs1 [Compound 179, 1-methyl-N-((6-((2-methylthiazol-4-yl)methoxy)-1H-indol-2-yl)methyl)cyclopropane-1-carboxamide] |
| 355 | Cc1cc(CCc2ccc3cc(CNC(=O)C4(C)CC4)[nH]c3c2)no1 [Compound 77, 1-methyl-N-((6-(2-(5-methylisoxazol-3-yl)ethyl)-1H-indol-2-yl)methyl)cyclopropane-1-carboxamide] |
| 577 | CC1(C(=O)NCc2cc3cc(F)c(OCc4cnco4)cc3[nH]2)CC1 [Compound 57, N-((5-fluoro-6-(oxazol-5-ylmethoxy)-1H-indol-2-yl)methyl)-1-methylcyclopropane-1-carboxamide] |
| 91 | Cc1nc(COc2cc3[nH]c(CNC(=O)C4(C)CC4)cc3cc2Cl)co1 [Compound 182, N-((5-chloro-6-((2-methyloxazol-4-yl)methoxy)-1H-indol-2-yl)methyl)-1-methylcyclopropane-1-carboxamide] |
| 43.4 | CC1(C(=O)NCc2cc3ccc(OCc4ccsn4)cc3[nH]2)CC1 [Compound 94, N-((6-(isothiazol-3-ylmethoxy)-1H-indol-2-yl)methyl)-1-methylcyclopropanecarboxamide] |
| 44 | CC1(C(=O)NCc2cc3cc(Cl)c(OCc4ccsn4)cc3[nH]2)CC1 [Compound 38, N-((5-chloro-6-(isothiazol-3-ylmethoxy)-1H-indol-2-yl)methyl)-1-methylcyclopropane-1-carboxamide] |
| 311 | Cc1c(CNC(=O)C2(C)CC2)[nH]c2cc(OCc3ccon3)ccc12 [Compound 155, N-((6-(isoxazol-3-ylmethoxy)-3-methyl-1H-indol-2-yl)methyl)-1-methylcyclopropane-1-carboxamide] |
| 4390 | CC1(C(=O)NCc2cc3ccc(OCc4ncccn4)cc3[nH]2)CC1 [Compound 51, 1-methyl-N-((6-(pyrimidin-2-ylmethoxy)-1H-indol-2-yl)methyl)cyclopropane-1-carboxamide] |
| 504 | CC1(C(=O)NCc2cc3ccc(NCc4ccccc4)cc3[nH]2)CC1 [Compound 3, N-((6-(benzylamino)-1H-indol-2-yl)methyl)-1-methylcyclopropanecarboxamide] |
